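Values below derive from 48-hour exposures of cells grown in 96-well plates, with endpoints linearly interpolated between the two concentrations bracketing the appropriate inhibition level. The concentration for 50% growth inhibition is given as GI50. TGI denotes the concentration required for complete inhibition of growth.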
What was measured:
Assay in all cases: inhibition of tumour cell growth, NCI panel, 48 h
HT29 colon = tested on: HT29 colon
UO-31 renal = tested on: UO-31 renal
HOP-92 NSCLC = tested on: HOP-92 NSCLC
MDA-MB-435 = tested on: MDA-MB-435
MALME-3M melanoma = tested on: MALME-3M melanoma
HCT-15 colon = tested on: HCT-15 colon
BT-549 breast = tested on: BT-549 breast
ACHN renal = tested on: ACHN renal
SW-620 colon = tested on: SW-620 colon
SK-MEL-28 melanoma = tested on: SK-MEL-28 melanoma
K-562 leukemia = tested on: K-562 leukemia
HS 578T breast = tested on: HS 578T breast
RPMI-8226 leukemia = tested on: RPMI-8226 leukemia
EKVX NSCLC = tested on: EKVX NSCLC
OVCAR-4 ovarian = tested on: OVCAR-4 ovarian
RXF 393 renal = tested on: RXF 393 renal
SK-MEL-5 melanoma = tested on: SK-MEL-5 melanoma
HOP-62 NSCLC = tested on: HOP-62 NSCLC
CAKI-1 renal = tested on: CAKI-1 renal
DU-145 prostate = tested on: DU-145 prostate
KM12 colon = tested on: KM12 colon
PC-3 prostate = tested on: PC-3 prostate
SNB-75 CNS = tested on: SNB-75 CNS
NCI-H226 lung = tested on: NCI-H226 lung
A549 NSCLC = tested on: A549 NSCLC
T-47D breast = tested on: T-47D breast
MDA-MB-231 breast = tested on: MDA-MB-231 breast
SN12C renal = tested on: SN12C renal
MOLT-4 leukemia = tested on: MOLT-4 leukemia
CCRF-CEM leukemia = tested on: CCRF-CEM leukemia
NCI-H522 lung = tested on: NCI-H522 lung
OVCAR-3 ovarian = tested on: OVCAR-3 ovarian
SF-295 CNS = tested on: SF-295 CNS
SF-268 CNS = tested on: SF-268 CNS
786-0 renal = tested on: 786-0 renal
U251 CNS = tested on: U251 CNS
OVCAR-5 ovarian = tested on: OVCAR-5 ovarian
M14 melanoma = tested on: M14 melanoma
OVCAR-8 ovarian = tested on: OVCAR-8 ovarian
NCI-H23 lung = tested on: NCI-H23 lung
UACC-257 melanoma = tested on: UACC-257 melanoma
HCT-116 colon = tested on: HCT-116 colon
IGROV1 ovarian = tested on: IGROV1 ovarian
MCF7 breast = tested on: MCF7 breast
SNB-19 CNS = tested on: SNB-19 CNS
LOX IMVI melanoma = tested on: LOX IMVI melanoma
HCC-2998 colon = tested on: HCC-2998 colon
SK-OV-3 ovarian = tested on: SK-OV-3 ovarian
MDA-MB-468 breast = tested on: MDA-MB-468 breast
NCI/ADR-RES ovarian = tested on: NCI/ADR-RES ovarian
HL-60(TB) leukemia = tested on: HL-60(TB) leukemia
TK-10 renal = tested on: TK-10 renal
A498 renal = tested on: A498 renal
SK-MEL-2 melanoma = tested on: SK-MEL-2 melanoma
UACC-62 melanoma = tested on: UACC-62 melanoma
SF-539 CNS = tested on: SF-539 CNS
COLO 205 colon = tested on: COLO 205 colon
NCI-H460 lung = tested on: NCI-H460 lung

## FC(F)(F)CN1CCN(CCn2c(C(F)(F)F)cc3c(Cl)ncnc32)CC1
HT29 colon
  GI50: 5.46 µM
  TGI: 36.6 µM
UO-31 renal
  GI50: 1.63 µM
  TGI: 3.27 µM
HOP-92 NSCLC
  GI50: 12.9 µM
  TGI: 29.2 µM
MDA-MB-435
  GI50: 5.5 µM
  TGI: 19.5 µM
MALME-3M melanoma
  GI50: 14.5 µM
  TGI: 32 µM
HCT-15 colon
  GI50: 2.55 µM
  TGI: 7.37 µM
BT-549 breast
  GI50: 13 µM
  TGI: 26.8 µM
ACHN renal
  GI50: 12.3 µM
  TGI: > 100 µM
SW-620 colon
  GI50: 4.86 µM
  TGI: 19.5 µM
SK-MEL-28 melanoma
  GI50: 8.13 µM
  TGI: 37.4 µM
K-562 leukemia
  GI50: 2.8 µM
  TGI: > 100 µM
HS 578T breast
  GI50: 14.2 µM
  TGI: 59.8 µM
RPMI-8226 leukemia
  GI50: 23.7 µM
  TGI: 77.4 µM
EKVX NSCLC
  GI50: 11.6 µM
  TGI: 40.4 µM
OVCAR-4 ovarian
  GI50: 26.8 µM
  TGI: > 100 µM
RXF 393 renal
  GI50: 11 µM
  TGI: 28.1 µM
SK-MEL-5 melanoma
  GI50: 3.73 µM
  TGI: 13.7 µM
HOP-62 NSCLC
  GI50: 13.8 µM
  TGI: 32.5 µM
CAKI-1 renal
  GI50: 13.6 µM
  TGI: 30.6 µM
DU-145 prostate
  GI50: 12.5 µM
  TGI: 32.8 µM
KM12 colon
  GI50: 17.9 µM
  TGI: 39.9 µM
PC-3 prostate
  GI50: 3.53 µM
  TGI: 12 µM
SNB-75 CNS
  GI50: 3.11 µM
  TGI: 14.2 µM
NCI-H226 lung
  GI50: 17.4 µM
  TGI: 72.8 µM
A549 NSCLC
  GI50: 52.9 µM
  TGI: > 100 µM
T-47D breast
  GI50: 17.3 µM
  TGI: 63.7 µM
MDA-MB-231 breast
  GI50: 1.76 µM
  TGI: 4.28 µM
SN12C renal
  GI50: 7.75 µM
  TGI: 23.1 µM
MOLT-4 leukemia
  GI50: 2.4 µM
  TGI: 9.2 µM
CCRF-CEM leukemia
  GI50: 4.37 µM
  TGI: > 100 µM
NCI-H522 lung
  GI50: 1.7 µM
  TGI: 3.52 µM
OVCAR-3 ovarian
  GI50: 14.3 µM
  TGI: 34.4 µM
SF-295 CNS
  GI50: 10.3 µM
  TGI: 25.9 µM
SF-268 CNS
  GI50: 5.2 µM
  TGI: 21.4 µM
786-0 renal
  GI50: 22.3 µM
  TGI: 60.7 µM
U251 CNS
  GI50: 2.4 µM
  TGI: 6.43 µM
OVCAR-5 ovarian
  GI50: > 100 µM
  TGI: > 100 µM
M14 melanoma
  GI50: 6.19 µM
  TGI: 23.1 µM
OVCAR-8 ovarian
  GI50: 3.2 µM
  TGI: 11.7 µM
NCI-H23 lung
  GI50: 5.84 µM
  TGI: 26.6 µM
UACC-257 melanoma
  GI50: 4.09 µM
  TGI: 16.9 µM
HCT-116 colon
  GI50: 3.16 µM
  TGI: 13.3 µM
IGROV1 ovarian
  GI50: 1.78 µM
  TGI: 3.54 µM
MCF7 breast
  GI50: 10 µM
  TGI: 42.6 µM
SNB-19 CNS
  GI50: 13.2 µM
  TGI: 26.8 µM
LOX IMVI melanoma
  GI50: 1.68 µM
  TGI: 3.1 µM
HCC-2998 colon
  GI50: 1.83 µM
  TGI: 3.28 µM
SK-OV-3 ovarian
  GI50: 16.2 µM
  TGI: 43.2 µM
MDA-MB-468 breast
  GI50: 2.19 µM
  TGI: 4.94 µM
NCI/ADR-RES ovarian
  GI50: 19 µM
  TGI: 46.6 µM
HL-60(TB) leukemia
  GI50: 2.75 µM
  TGI: 8.18 µM
TK-10 renal
  GI50: 35.5 µM
  TGI: > 100 µM
A498 renal
  GI50: 21.3 µM
  TGI: 57.4 µM
SK-MEL-2 melanoma
  GI50: 15.7 µM
  TGI: 30.9 µM
UACC-62 melanoma
  GI50: 4.69 µM
  TGI: 18.1 µM
SF-539 CNS
  GI50: 12.6 µM
  TGI: 28.7 µM
COLO 205 colon
  GI50: 18.4 µM
  TGI: 46.2 µM
NCI-H460 lung
  GI50: 2.66 µM
  TGI: 6.73 µM
